In the NIST ThermoML archive (doi:10.1021/acs.jced.5b00613):

Test: xn = mol fraction of the nth substance listed
Details: Liquid, Vibrating tube method

CCCCCCCCCC [decane] + CCCCCC
mass density [kg/m3]
Details	1000 kPa	5000 kPa	10000 kPa	20000 kPa	30000 kPa	40000 kPa	50000 kPa	60000 kPa
348.15 K, x2 = 0.1992	–	–	687.7	697.1	705.3	712.7	719.5	725.8
348.15 K, x2 = 0.3968	–	–	676	685.8	694.4	702.2	709.3	715.9
348.15 K, x2 = 0.4978	–	–	668.8	679	687.8	695.7	703	709.7
348.15 K, x2 = 0.5957	–	–	661.4	671.9	681	689.1	696.4	703.2
348.15 K, x2 = 0.7978	–	637.5	644	655.3	665	673.6	681.4	688.5
373.15 K, x2 = 0.1992	657.7	663	669	679.9	689.3	697.6	705	711.8
373.15 K, x2 = 0.3968	645	650.7	657.1	668.5	678.3	687	694.8	701.9
373.15 K, x2 = 0.4978	636.7	642.6	649.4	661.3	671.4	680.2	688.2	695.5
373.15 K, x2 = 0.5957	628.1	634.4	641.4	653.7	664.1	673.2	681.3	688.8
373.15 K, x2 = 0.7978	608.4	615.4	623.2	636.6	647.8	657.5	666.2	674
423.15 K, x2 = 0.1992	614.4	622.2	630.6	644.9	656.8	667.1	676.2	684.4
423.15 K, x2 = 0.3968	599.1	607.8	617.1	632.5	645.3	656.2	665.7	674.3
423.15 K, x2 = 0.4978	589.4	598.8	608.6	624.8	637.9	649	658.8	667.5
423.15 K, x2 = 0.5957	578.9	588.9	599.2	616.2	629.8	641.3	651.3	660.2
423.15 K, x2 = 0.7978	554.6	566.5	578.7	597.5	612.4	624.8	635.7	645.3
463.15 K, x2 = 0.1992	–	586.3	597.8	616.1	630.7	642.9	653.4	662.7
463.15 K, x2 = 0.3968	–	570.2	583.3	603.3	618.8	631.7	642.8	652.7
463.15 K, x2 = 0.4978	–	559.5	573.5	594.6	610.7	624.1	635.5	645.6
463.15 K, x2 = 0.5957	–	547.9	563.1	585.4	602.3	616	627.6	637.9
463.15 K, x2 = 0.7978	–	521.1	539.4	565.1	583.8	598.5	611	621.8
